Test [1] deals with colonrectal cancer HT-29 cells. Description: Cell proliferation assay (MTT), HT-29 cells. The conditions noted are these: single agents and combinations. The format is cell-based, Human. The protocol: (§1) Cell Proliferation Assay (MTT)
(§2) The cell proliferation assay was performed as described previously in Sun et al., Bioorg Med Chem Lett, 2004, Vol. 14, pp. 2041-2046. Briefly, 50 μl aliquots of medium with different concentrations of compounds were added to 96-well plates. All compound concentrations were tested in triplicate. Another 50 μl of the cell stock (1×10^5 cells/ml of media) was dispensed into each test well and the plates were incubated at 37° C. in a CO2 incubator for 3 days. Following the incubation period, 15 μl of the dye solution was added to each well and the plates were then incubated at 37° C. for 4 hours, followed by the addition of 100 μl per well of the solubilization solution. The plates were incubated at 37° C. until the contents in each well became a uniform-colored solution. The absorbance was measured and recorded at 570 nm by a Victor Plate Reader.
(§3) The cell proliferation assay (Promega, Madison, Wis.) was performed as described in Sun et al., Bioorg Med Chem Lett, 2004, Vol. 14, pp. 2041-2046. The absorbance was measured and recorded at 570 nm by a Victor Plate Reader (PerkinElmer, Boston, Mass.).

The test system of test [2] is pancreatic cancer CFPAC-1 cells. The test can be described thus: Cell proliferation assay (MTT), CFPAC-1 cells. The format is cell-based, Human. Particulars: single agents and combinations. As for the experimental part:
as §1, §2, §3

Test [3] relates to ovarian cancer OVCAR8 cells. The test can be described thus: Cell proliferation assay (MTT), OVCAR8 cells. The conditions noted are these: single agents and combinations. The format is cell-based, Human. As for the experimental part:
as §1, §2, §3

Another test concerns Hela-GFP cells. Description: Cell proliferation assay (MTT), Hela-GFP cells. In kind it is cell-based, Human. The protocol: as §1
(§4) The cell proliferation assay (Promega, Madison, Wis.) was performed as described previously in Sun et al., Bioorg Med Chem Lett, 2004, Vol. 14, pp. 2041-2046. Briefly, fifty μl of medium with or without tested compounds was added to 96-well plates. Another 50 μl of tested cancer cells (1×10^5 cells/ml) suspended in culture medium was dispensed into each well. The plates were incubated at 37° C. for 3 days. Afterward, plates were added with a 15 μl dye solution per well and incubated at 37° C. for 4 hours. To each well was then added 100 μl of the solubilization solution and the plates were incubated at 37° C. again until the contents in each well became a uniformly colored solution. The plates were measured at 570 nm by a Victor Reader (PerkinElmer).

Another test relates to Hela-ICN1 cells. The test can be described thus: Cell proliferation assay (MTT), Notch1-activated Hela-ICN1 cells. The format is cell-based, Human. As for the experimental part:
as §1, §4

The test system of test [4] is cAMP production in Hela-ICN1 cells. The test can be described thus: Fluorescence polarization (FP) cAMP assay, Hela-ICN1 cells. In kind it is cell-based, Human. The conditions noted are these: for cAMP production: Hela cells with activated Notch1 signaling (Hela-ICN1). As for the experimental part: (§5) Fluorescence Polarization (FP) cAMP Assay The FP cAMP assay (FPA202) was performed according to the manufacturer's protocol (PerkinElmer, Boston, Mass. 02118-2512). Briefly, ten μl of forskolin at different concentrations were added to each well, then to each well ten μl of cell suspended in Stimulation Mix (made fresh before use by mixing anti-cAMP antibody in stimulation buffer) was added. Plates were incubated 30 minutes at 37° C. Twenty μl of Detection Mix (Fluo-cAMP stock diluted in Detection Buffer) was added and continued incubation 30 minutes at 37° C. Meanwhile, the standard curve, and controls were done. The cAMP was measured by Victor Reader (PerkinElmer).
Background: Polarisation of emitted light reports the rotation of a fluorescent probe.

In test [5] the test system is cAMP production in Hela-GFP cells. Description: Fluorescence polarization (FP) cAMP assay, Hela-GFP cells. In kind it is cell-based, Human. Particulars: control Hela (Hela-GFP) cells. As for the experimental part:
as §5

The subject of test [6] is cervical cancer Hela cells. Description: Cell proliferation assay (MTT), cervical cancer Hela cells. Particulars: single agents and combinations, VPA 2.5 mM in FIGS. 19, 22. The format is cell-based, Human.
Test [7] relates to pancreatic carcinoid BON cells. The test can be described thus: Cell proliferation assay (MTT), BON cells. The format is cell-based, Human. Particulars: single agents and combinations, 2.5 mM VPA or 10 uM SBHA in FIGS. 20, 23.
Test [8] relates to small cell lung cancer DMS-53 cells. Description: Cell proliferation assay (MTT), DMS-53 cells. The format is cell-based. Particulars: single agents and combinations, 2.5 mM VPA or 10 uM SBHA in FIGS. 21, 24.

Each structure is given as a SMILES string. Where a SMILES comes first, the peptide text is derived from it. [ ]: non-standard residue; d: D form. The star is where a group is joined. Nle = CCCC[C@H](N)C(=O)O; Cbz = O=C(OCc1ccccc1)*

As to `CCCC[C@@H](C=O)NC(=O)[C@H](CC(C)C)NC(=O)[C@H](CC(C)C)NC(=O)OCc1ccccc1` [NLE, Z-Leu-Leu-Nle-CHO] (Cbz-Leu-Leu-[Nle]-aldehyde), the “cell growth suppression (MTT), in words” value in test [1], in test [2] and in test [3] was “induced cell growth arrest” throughout.
On to `C[C@H](N)C(=O)NCC(=O)N[C@H]1CSSC[C@@H](C(=O)O)NC(=O)[C@H](CO)NC(=O)[C@H]([C@@H](C)O)NC(=O)[C@H](Cc2ccccc2)NC(=O)[C@H]([C@@H](C)O)NC(=O)[C@H](CCCCN)NC(=O)[C@H](Cc2c[nH]c3ccccc23)NC(=O)[C@H](Cc2ccccc2)NC(=O)[C@H](Cc2ccccc2)NC(=O)[C@H](CC(N)=O)NC(=O)[C@H](CCCCN)NC1=O` [SST-14, Ala-Gly-Cys-Lys-Asn-Phe-Phe-Trp-Lys-Thr-Phe-Thr-Ser-Cys], for which the entries for the “inhibitory rate of cell proliferation (MTT)” value in the test on Hela-GFP cells (compound at 1 μM), in the test with Hela-GFP cells (compound at 10 μM) and in the test on Hela-GFP cells (compound at 20 μM) were “almost no effect”, 28% and “about 40%”, respectively. Also, the “inhibition of cell growth (MTT)” value is 2% in the test with Hela-ICN1 cells (compound at 1 μM) and 8% with Hela-ICN1 cells (compound at 10 μM).
`C=C[C@@]1(C)CC(=O)[C@]2(O)[C@@]3(C)[C@@H](O)CCC(C)(C)[C@@H]3[C@H](O)[C@H](OC(C)=O)[C@@]2(C)O1` [forskolin]: the cAMP production in test [4] (forskolin at 1 μM) came to 0.05 pMol cAMP per 10^3 cells; in test [4] (forskolin at 10 μM), 0.25 pMol cAMP per 10^3 cells; in test [4] (forskolin at 50 μM) it was 0.46 pMol cAMP per 10^3 cells; in test [5] (forskolin at 1 μM), 0.005 pMol cAMP per 10^3 cells; in test [5] (forskolin at 10 μM) it was 0.018 pMol cAMP per 10^3 cells; in [5] (forskolin at 50 μM), 0.024 pMol cAMP per 10^3 cells. The results for the “cAMP concentration in Hela-ICN1 cells relative to Hela-GFP cells” value in test [4] (forskolin at 1 μM), in [4] (forskolin at 10 μM) and in [4] (forskolin at 50 μM) were 10 fold, 14 fold and 19 fold, respectively.
Consider `O=C(CCCCCCC(=O)NO)NO` [SBHA, suberoyl bis-hydroxamic acid], for which the “cell growth suppression (MTT), in words” value is given as “suppressed” in test [6], “induced growth suppression” in test [7] and “induced growth suppression” in [8].

The values above are taken from patent US9358272B2, “Multicomponent compositions and their uses” (THE ADMINISTRATORS OF THE TULANE EDUCATIONAL FUND, priority 2011, dated 2016).
